Values of other authors in US7569576B2, “Cyclic 1-(acyloxy)-alkyl prodrugs of GABA analogs, compositions and uses thereof” (XenoPort, Inc., priority 2002, dated 2009).

Structure (SMILES) | toxicity (LD50, mouse)
NCC1(CC(=O)O)CCCCC1 [gabapentin] | more than 8000 mg/kg
O=C1CC2(CCCCC2)CN1 [lactam 9] | 300 mg/kg
